Among the data in PubChem BioAssay AID328 (DTP/NCI, 2004) are T/C values, retold here.

This test concerns BDF1 mice, P388 leukemia ip, median survival T/C. Nature of the test: NCI In Vivo Anticancer Drug Screen. Data for tumor model P388 Leukemia (intraperitoneal) in B6D2F1 (BDF1) mice. The following applies: endpoint: median survival time, higher = longer survival. In short, it runs like this: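 Steps: implant the tumour, treat one group with compound and another with vehicle, record survival, then divide treated by control.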

Setting [1] is: dose: 25.0 mg/kg/injection, schedule: Q01DX009 (ip), vehicle: Klucel (hydroxypropylcellulose) (HPC).
The mark [2] stands for this setting: dose: 50.0 mg/kg/injection, schedule: Q01DX009 (ip), vehicle: Klucel (hydroxypropylcellulose) (HPC).
Where [3] appears, read: dose: 75.0 mg/kg/injection, schedule: Q01DX009 (ip), vehicle: Klucel (hydroxypropylcellulose) (HPC).
Where [4] appears, read: dose: 100.0 mg/kg/injection, schedule: Q01DX009 (ip), vehicle: Klucel (hydroxypropylcellulose) (HPC).
[5] abbreviates: dose: 100.0 mg/kg/injection, schedule: Q04DX003 (ip), vehicle: Klucel (hydroxypropylcellulose) (HPC).
[6] abbreviates: dose: 6.25 mg/kg/injection, schedule: Q01DX009 (ip), vehicle: saline.
Setting [7] is: dose: 100.0 mg/kg/injection, schedule: Q01DX009 (ip), vehicle: saline with Tween-80.
[8] abbreviates: dose: 200.0 mg/kg/injection, schedule: Q01DX009 (ip), vehicle: saline with Tween-80.
[9] abbreviates: dose: 400.0 mg/kg/injection, schedule: Q01DX009 (ip), vehicle: saline with Tween-80.
Where [10] appears, read: dose: 200.0 mg/kg/injection, schedule: Q01DX009 (ip), vehicle: Klucel (hydroxypropylcellulose) (HPC).
Where [11] appears, read: dose: 200.0 mg/kg/injection, schedule: Q04DX003 (ip), vehicle: Klucel (hydroxypropylcellulose) (HPC).
[12] abbreviates: dose: 150.0 mg/kg/injection, schedule: Q01DX009 (ip), vehicle: Klucel (hydroxypropylcellulose) (HPC).
Where [13] appears, read: dose: 400.0 mg/kg/injection, schedule: Q04DX003 (ip), vehicle: Klucel (hydroxypropylcellulose) (HPC).
Setting [14] is: dose: 50.0 mg/kg/injection, schedule: Q01DX009 (ip), vehicle: saline with Tween-80.

Several values for one entry are separate records, joined by “and”; a condition that tells them apart may be missing. Equal values may be shown once. Toxic doses and inconclusive results are not listed.

As for `CC(=N/O)/C(C)=N\O`, the T/C is, setting by setting: (dose: 6.25 mg/kg/injection, schedule: Q01DX009 (ip), vehicle: Klucel (hydroxypropylcellulose) (HPC)) 110 % of control; under setting [1], 95 % of control; (dose: 25.0 mg/kg/injection, schedule: Q04DX003 (ip), vehicle: Klucel (hydroxypropylcellulose) (HPC)) 95 % of control; under setting [2], 110 % of control and 120 % of control; under setting [3], 100 % of control; under setting [4], 120 % of control. Moreover, the T/C runs as follows: under setting [5], 95 % of control; (dose: 100.0 mg/kg/injection, schedule: Q04DX003 (ip), vehicle: other) 100 % of control.

With `COC12CC3(C)C(C4=CC(=O)OC4)CCC3(O)C3CCC4=CC(=O)CCC4(CO1)C32` (stereo unspecified), the T/C by setting is: (dose: 56.0 mg/kg/injection, schedule: Q01DX010 (ip), vehicle: carboxymethylcellulose (CMC)) 95 % of control; (dose: 112.5 mg/kg/injection, schedule: Q01DX010 (ip), vehicle: carboxymethylcellulose (CMC)) 100 % of control; (dose: 225.0 mg/kg/injection, schedule: Q01DX010 (ip), vehicle: carboxymethylcellulose (CMC)) 90 % of control.

Regarding `CCCCCC(CN(C)C)C(O)/C=C\c1ccccc1` (stereo unspecified), the T/C (dose: 3.13 mg/kg/injection, schedule: Q01DX009 (ip), vehicle: saline) was 100 % of control; the T/C under setting [6] is 117 % of control; the T/C (dose: 12.5 mg/kg/injection, schedule: Q01DX009 (ip), vehicle: saline) is 119 % of control; the T/C (dose: 50.0 mg/kg/injection, schedule: Q01DX009 (ip), vehicle: saline) is 104 % of control; the T/C (dose: 100.0 mg/kg/injection, schedule: Q01DX009 (ip), vehicle: saline) was 99 % of control.

For the compound `Cn1cnc2c(SCc3ccccc3)ncnc21`, the T/C by setting is: under setting [7], 109 % of control; under setting [8], 113 % of control; under setting [9], 90 % of control.

As for `O=S(=O)(NS(=O)(=O)c1ccc(Cl)cc1)c1ccc(Cl)cc1`, the T/C is 95 % of control under setting [2]; 115 % of control under setting [4]; 95 % of control under setting [5]; 115 % of control under setting [10]; 86 % of control under setting [11].

In the case of `CN(C)C(c1ccccc1)C(CBr)C(=O)c1ccc(Br)cc1` (stereo unspecified), the T/C runs as follows: under setting [6], 110 % of control; (dose: 16.5 mg/kg/injection, schedule: Q01DX009 (ip), vehicle: saline) 109 % of control and 116 % of control; (dose: 25.0 mg/kg/injection, schedule: Q01DX009 (ip), vehicle: saline) 100 % of control and 118 % of control; (dose: 27.5 mg/kg/injection, schedule: Q04DX003 (ip), vehicle: saline) 104 % of control; (dose: 37.5 mg/kg/injection, schedule: Q01DX009 (ip), vehicle: saline) 113 % of control and 120 % of control; (dose: 55.0 mg/kg/injection, schedule: Q04DX003 (ip), vehicle: saline) 100 % of control.

Consider `N#C/C(=C1C=C(Br)/C(=N\O)C=C\1Cl)c1ccc(Cl)cc1`, for which the T/C runs as follows: under setting [1], 115 % of control; under setting [2], 110 % of control; under setting [4], 115 % of control and 123 % of control; under setting [5], 100 % of control; under setting [12], 109 % of control; under setting [10], 123 % of control. Moreover, the T/C by setting is: under setting [11], 118 % of control; (dose: 225.0 mg/kg/injection, schedule: Q01DX009 (ip), vehicle: Klucel (hydroxypropylcellulose) (HPC)) 109 % of control; under setting [13], 113 % of control.

Regarding `CCC(C)c1ccccc1OC(=O)Nc1ccc(OC)cc1` (stereo unspecified), the T/C by setting is: (dose: 50.0 mg/kg/injection, schedule: Q04DX003 (ip), vehicle: Klucel (hydroxypropylcellulose) (HPC)) 95 % of control; under setting [5], 100 % of control; under setting [11], 100 % of control.

For the compound `Clc1nc2nsnc2nc1Cl`, the T/C reads like this: (dose: 6.25 mg/kg/injection, schedule: Q04DX003 (ip), vehicle: saline with Tween-80) 101 % of control; (dose: 12.5 mg/kg/injection, schedule: Q01DX009 (ip), vehicle: saline with Tween-80) 104 % of control; (dose: 12.5 mg/kg/injection, schedule: Q04DX003 (ip), vehicle: saline with Tween-80) 94 % of control and 115 % of control; (dose: 25.0 mg/kg/injection, schedule: Q01DX009 (ip), vehicle: saline with Tween-80) 98 % of control; (dose: 25.0 mg/kg/injection, schedule: Q04DX003 (ip), vehicle: saline with Tween-80) 101 % of control and 107 % of control; under setting [14], 107 % of control. The T/C by setting is: (dose: 50.0 mg/kg/injection, schedule: Q04DX003 (ip), vehicle: saline with Tween-80) 97 % of control and 107 % of control; under setting [7], 122 % of control; (dose: 100.0 mg/kg/injection, schedule: Q04DX003 (ip), vehicle: saline with Tween-80) 105 % of control; under setting [8], 118 % of control; (dose: 200.0 mg/kg/injection, schedule: Q04DX003 (ip), vehicle: saline with Tween-80) 110 % of control and 112 % of control; (dose: 300.0 mg/kg/injection, schedule: Q04DX003 (ip), vehicle: saline with Tween-80) 115 % of control. Also, the T/C under setting [9] was 105 % of control.

Take `CSc1nc(N)nc2nc[nH]c12`: the T/C was 109 % of control under setting [14] and 104 % of control under setting [7].

As to `CCN(Cc1ccccc1)c1ccc(/C=C/c2ccnc3ccccc23)cc1`, the T/C is 100 % of control under setting [14], 90 % of control under setting [7] and 108 % of control under setting [8].

Take `COC(OC)c1cc(S)[nH]c(=O)c1F`: the T/C was 100 % of control under setting [5], 110 % of control under setting [11] and 100 % of control under setting [13].

For `COc1ccc(-c2csc(=[N+]3CCCCC3)s2)cc1`, the T/C is 105 % of control (dose: 12.5 mg/kg/injection, schedule: Q04DX003 (ip), vehicle: saline); 122 % of control (dose: 25.0 mg/kg/injection, schedule: Q04DX003 (ip), vehicle: saline); 87 % of control (dose: 50.0 mg/kg/injection, schedule: Q04DX003 (ip), vehicle: saline).

Regarding `CCC1COC(CC)N1` (stereo unspecified), the T/C runs as follows: (dose: 50.0 mg/kg/injection, schedule: Q01DX005 (ip), vehicle: saline with Tween-80) 103 % of control; (dose: 100.0 mg/kg/injection, schedule: Q01DX005 (ip), vehicle: saline with Tween-80) 110 % of control; (dose: 200.0 mg/kg/injection, schedule: Q01DX005 (ip), vehicle: saline with Tween-80) 120 % of control.

On to `O=C(CCCCC(=O)Nc1ccc(C(=O)Nc2cc(C3=NCCN3)cc(C3=NCCN3)c2)cc1)Nc1ccc(C(=O)Nc2cc(C3=NCCN3)cc(C3=NCCN3)c2)cc1`, for which the T/C runs as follows: (dose: 66.0 mg/kg/injection, schedule: Q01DX009 (ip), vehicle: saline) 150 % of control; (dose: 150.0 mg/kg/injection, schedule: Q01DX009 (ip), vehicle: saline) 150 % of control; (dose: 150.0 mg/kg/injection, schedule: Q04DX003 (ip), vehicle: saline) 154 % of control; (dose: 200.0 mg/kg/injection, schedule: Q04DX003 (ip), vehicle: saline) 150 % of control.

As to `CCCC(C1=CC(C)(C)c2ccccc2C1=O)c1ccc(Br)cc1` (stereo unspecified), the T/C was 109 % of control under setting [3]; 100 % of control under setting [4]; 100 % of control under setting [5]; 113 % of control under setting [12]; 95 % of control and 100 % of control under setting [10]; 100 % of control under setting [11]. Further, the T/C is, setting by setting: (dose: 300.0 mg/kg/injection, schedule: Q01DX009 (ip), vehicle: Klucel (hydroxypropylcellulose) (HPC)) 100 % of control; (dose: 400.0 mg/kg/injection, schedule: Q01DX009 (ip), vehicle: Klucel (hydroxypropylcellulose) (HPC)) 95 % of control; under setting [13], 100 % of control.

With `CC(=O)N(C)c1ccc(Nc2cc(C)[nH]c3ccc4ncnc4c23)cc1`, the T/C (dose: 50.0 mg/kg/injection, schedule: Q04DX002 (ip), vehicle: saline) was 158 % of control; the T/C (dose: 100.0 mg/kg/injection, schedule: Q04DX002 (ip), vehicle: saline with Tween-80) is 181 % of control; the T/C (dose: 100.0 mg/kg/injection, schedule: Q04DX002 (ip), vehicle: saline) is 181 % of control.

As to `C#CCOCCBr`, under “dose: 22.0 mg/kg/injection, schedule: Q01DX009 (ip), vehicle: saline”, the T/C is 122 % of control.
